Test results published in patent US9394288B2, “Compositions and methods for the treatment of asthma and allergy” (CELLIX BIO PRIVATE LIMITED, priority 2012, dated 2016).

Test system: TNB/ethanol colitis
Test: Intracolonic administration in rat model of chronic colitis (TNB/ethanol): macroscopic colonic damage
Assay type: in vivo, Sprague-Dawley rats
Details: for macroscopic damage score: after four weeks of treatment, daily enema 50 mg/kg (Formula I (1-1): zileuton equivalent), p=0.026
Experimental: Female virgin Sprague-Dawley rats weighing 200-250 g were used in this study. The animals were maintained in a restricted access room with controlled temperature (23° C.) and light/dark cycle (16 h:8 h). The rats were housed in individual isolated rack mounted wire cages.
TNB/ethanol colitis was induced in 90 rats. Animals were thereafter randomised into four therapeutic groups to receive daily, from day 1 (24 hours after induction of colitis):
Group A (n=30)−0.25 ml of vehicle solution enema (1-5% carboxymethylcellulose in saline serum) (placebo group).
Group B (n=30)−0.25 ml of the vehicle solution enema added with 50 mg/kg of body weight of 5-ASA.
Group C (n=30)−0-25 ml of the vehicle solution enema added with 50 mg/kg of body weight of zileuton.
Group D (n=30)−0-25 ml of the vehicle solution enema added with 50 mg/kg of body weight of Formula I (1-1) equivalent of zileuton.
In addition, sham colitis was induced, by intrarectal administration of 0-25 ml of 0.9°/0 saline, in 10 rats (control group). At day 1 and 3, and at weeks 1, 2, and 4, 10 rats from groups A, B, C and D were randomly selected for the assessment of eicosanoid release in the lumen of the colon by intracolonic dialysis. Rats were anaesthetised with 100 mg of intraperitoneal thiopental and intracolonic dialysis was performed using hydrated Visking seamless cellulose tubing (8/32, 6-3 mm diameter, 7 cm long; Medicell International, London) attached by a 10 cm polyurethane cannula to an external syringe. After inserting the entire cannula into the distal colon, the dialysis bag was filled with 1 ml of dialysis solution, consisting of 0.3°/o bovine serum albumin in a solution of 120 mmol/1 NaCl and 30 mmol/1 KHCO3 adjusted to pH 7.90. One hour later, the fluid was withdrawn and immediately stored at −30 C. The volume of the dialysate recovered at the end of the one hour period was higher than 90%. In the control group (n=10), an intracolonic dialysis was performed in the same way 24 hours after the sham colitis induction. The day after the dialysis was performed at weeks 1, 2, and 4, the same animals were given a distal colectomy under total anaesthesia with 100 mg of intraperitoneal thiopental, to assess colonic inflammation macroscopically and histologically. The excised colon was opened longitudinally, rinsed with normal saline, pinned out on a wax block, and assigned a code number. Mucosal damage was assessed macroscopically as described later. Afterwards, three tissue specimens (2×10 mm) were obtained from the colon. When no severely visible inflammation was present, the specimens were taken from the regions 1 cm, 3 cm, and 8 cm proximal to the anus. When visible lesions were present, the specimens were taken from the affected regions. Tissue samples were fixed in formaldehyde and routinely processed. […]

| Structure (SMILES) | macroscopic damage score | all parameters measured by the score, mainly the development of strictures (at four weeks, compared with 5-ASA, zileuton and placebo) |
| --- | --- | --- |
| CC/C=C\C/C=C\C/C=C\C/C=C\C/C=C\CCCC(=O)NC(=O)N(O)C(C)c1cc2ccccc2s1 (stereo not shown) [Formula I (1-1)] | 4.36 (0.6) | improved |
| CC(c1cc2ccccc2s1)N(O)C(N)=O (stereo not shown) [zileuton] | 5.6 (0.7) | – |
| Nc1ccc(O)c(C(=O)O)c1 [5-ASA] | 7.3 (0.7) | – |
